From patent US20220133835A1, “ANTIDIABETIC COMPOSITION COMPRISING GINGER EXTRACT OBTAINED FROM MICROWAVE-PROCESSED GINGER AND METHOD OF PREVENTING OR TREATING DIABETIS MELLITUS” (priority 2020, published 2022)
“Also recorded” adds a separate entry of the source.

What was measured:
INS-1 cells [1] = test: Glucose stimulated insulin secretion (GSIS) of INS-1 cell; format: cell-based, rat; conditions: for Stimulation index (SI): insulin secreted at 16.7 mM glucose divided by that at 3.3 mM glucose; for insulin secretion of INS-1 cells: summary in words of Tables 3 and 4
Experimental: Cell line INS-1 (Biohermes, Shanghai, China) is a […] insulinoma species and has insulin secretion ability. INS-1 cells were cultured in RPMI1640 (Cellgro, Manassas, Va., USA) medium supplemented with 10% fetal bovine serum (FBS), 100 units/mL penicillin G, 100 μg/mL streptomycin, 10 mM HEPES, 2 mM L-glutamine, 1 mM sodium pyruvate and 0.05 mM 2-mercapto ethanol under a condition of a temperature of 37° C., 90% air, and 10% CO2. Among the above-mentioned components, reagents not mentioned by the manufacturer were purchased from Gibco BRL, Life Technologies. 5×10^5 cultured INS-1 cells were inoculated in each well of the 12-well plate in the same medium of 2 mL and cultured for 24 hours under the same condition as described in Section (1) INS-1 cell culture to stabilize the cells. Then, 114 mM sodium chloride (NaCl), 4.4 mM potassium chloride (KCl), 1 mM magnesium sulfate (MgSO4), 1.28 mM calcium chloride (CaCl2)), 29.5 mM sodium hydrogen carbonate (NaHCO3), 10 mM HEPES; Gibco BRL Life Technologies), and 0.1% bovine serum albumin (BSA) were mixed, and the cells were washed twice with 2 mL of Krebs-Ringer buffer with a hydrogen ion concentration of pH 7.4. Thereafter, 2 mL of Krebs-Ringer buffer was added to the washed cells and incubated for 1 hour. Then, the ginger extract, each fraction, and each compound were incubated for 30 minutes in 1.8 mL of Krebs-Ringer buffer at a specific concentration. The specific concentrations of the ginger extract and a fraction thereof were set to 1 μg/m L, 2.5 μg/mL, and 5 μg/mL, and the specific concentrations of the single compound were set to 1 μM, 2.5 μM, and 5 μM. 0.2 mL of Krebs-Ringer buffers containing 33 mM and 167 mM glucose were each added to the wells and incubated for 1 hour. Thereafter, after centrifugation at 12,000 revolutions per minute (rpm) for 10 minutes at a temperature of 4° C., the supernatant was taken, and the amount of insulin was measured with a Rat insulin RIA kit (Gentaur Molecular Products, Belgium). The stimulation index (SI) is a value obtained by dividing a value measured at a high glucose concentration, that is, the amount of insulin secreted by stimulation of a 16.7 mM glucose concentration by a value measured at a low glucose concentration, that is, the amount of insulin secreted by stimulation of a 3.3 mM glucose concentration. As a positive control, gliclazide was used at concentrations of 2.5 μM, 5.0 μM, 10 μM, and 20 μM.

INS-1 cells [2] = test: INS-1 cell toxicity (CCK-8 cell viability); conditions: for Cell viability (%): 24 hours, INS-1 cells, CCK-8; for toxicity against INS-1 cells: summary of Tables 1 and 2, up to 5 μg/mL or 5 μM
Experimental: Cell line INS-1 (Biohermes, Shanghai, China) is a […] insulinoma species and has insulin secretion ability. INS-1 cells were cultured in RPMI1640 (Cellgro, Manassas, Va., USA) medium supplemented with 10% fetal bovine serum (FBS), 100 units/mL penicillin G, 100 μg/mL streptomycin, 10 mM HEPES, 2 mM L-glutamine, 1 mM sodium pyruvate and 0.05 mM 2-mercapto ethanol under a condition of a temperature of 37° C., 90% air, and 10% CO2. Among the above-mentioned components, reagents not mentioned by the manufacturer were purchased from Gibco BRL, Life Technologies. The cultured INS-1 cells were inoculated in each well of a 96-well plate in the number of 1×10^4 in a medium of 100 μL and cultured for 24 hours to stabilize the cells. Next, the ginger extract, fraction thereof, and single compounds were added to a specific concentration, followed by culturing for 24 hours. Next, 10 μL of a CCK-8 reagent (Dojindo Laboratories, Japan) was added to each well, followed by culturing at a temperature of 37° C. After 1 hour, cell viability was measured by measuring absorbance at a wavelength of 450 nm on a BIO-TEK (Winooski, Vt., USA) microplate reader. The specific concentrations of the ginger extract and a fraction thereof were set to 1 μg/m L, 2.5 μg/mL, and 5 μg/mL, and the specific concentrations of the single compound were set to 1 μM, 2.5 μM, and 5 μM. Cell viability in Tables 1 and 2 was calculated as follows. Cell viability (%)=A/B×100 A: absorbance of sample to which a reagent is […]

[3] = through induction of cell defense mechanisms; cited from earlier work
ICR mice = test: Oral glucose tolerance test (OGTT); format: in vivo, mouse; conditions: 100 mg/kg oral 1 hour before glucose 2 g/Kg, caudal vein blood at 0-120 minutes, vs control and unprocessed/6-gingerol group
Experimental: ICR mice were used for OGTT experiments. ICR mice were fasted for 12 hours before the experiment, blood was collected from the caudal vein of mice that had been fasted for 12 hours, and the fasting blood glucose level was measured as the initial blood glucose level. Thereafter, experiments were conducted with a group administered with glucose (2 g/Kg) (control), a group administered with glucose and a raw ginger extract (100 mg/kg, not processed), and a group administered with a microwave-processed ginger product (100 mg/kg, processed). After oral administration for each concentration, glucose was orally administered 1 hour later, and measurement was performed by using a blood glucose meter from the caudal vein at 0, 15, 30, 60, and 120 minutes. FIG. 3 is a graph of results of an oral glucose tolerance test of a ginger extract and a microwave-processed ginger product.
Next, to test the efficacy of a single component of ginger, blood was collected from the caudal vein of mice that had been fasted for 12 hours, and the fasting blood glucose level was measured as the initial blood glucose level. Thereafter, experiments were conducted with a group administered with glucose (2 g/Kg) (control), a group administered with glucose and 6-gingerol (100 mg/kg), and a group administered with glucose and 6-shogaol (100 mg/kg). […]

Compound | Stimulation index (SI) (INS-1 cells [1]; 1 μM) | Stimulation index (SI) (INS-1 cells [1]; 2.5 μM) | Stimulation index (SI) (INS-1 cells [1]; 5 μM) | insulin secretion of INS-1 cells (INS-1 cells [1]) | Cell viability (%) (INS-1 cells [2]; 1 μM) | Cell viability (%) (INS-1 cells [2]; 2.5 μM) | Cell viability (%) (INS-1 cells [2]; 5 μM) | toxicity against INS-1 cells (INS-1 cells [2]) | anticancer activity compared with [6]-gingerol [3] | increase in blood glucose level (ICR mice)
CCCCCCCCC[C@H](O)CC(=O)CCc1ccc(O)c(OC)c1 [[10]-gingerol] | 1.7 ± 0.2 | 1.7 ± 0.1 | 1.5 ± 0.1 | secreted insulin concentration-dependently | 99.3 ± 1.6 | 100.6 ± 3.3 | 100.7 ± 3.5 | not to exhibit toxicity |  | 
shogaol |  |  |  |  |  |  |  |  | more than 10 times | 
CCCCCCCCC/C=C/C(=O)CCc1ccc(O)c(OC)c1 [[10]-shogaol] | 1.9 ± 0.0 | 1.4 ± 0.0 | 1.4 ± 0.1 | secreted insulin concentration-dependently | 101.9 ± 2.2 | 99.8 ± 3.9 | 99.6 ± 3.3 | not to exhibit toxicity |  | 
CCCCC/C=C/C(=O)CCc1ccc(O)c(OC)c1 [[6]-shogaol] | 3.0 ± .0 | 3.5 ± 0.1 | 4.8 ± 0.0 | secreted insulin concentration-dependently; also recorded: promote insulin secretion in INS-1 cells, as compared with other components | 101.1 ± 0.4 | 101.8 ± 0.7 | 101.2 ± 0.2 | not to exhibit toxicity |  | significantly reduced
CCCCC[C@H](O)CC(=O)CCc1ccc(O)c(OC)c1 [[6]-gingerol] | 2.4 ± 0.0 | 2.2 ± 0.1 | 2.3 ± 0.1 | secreted insulin concentration-dependently | 98.1 ± 2.7 | 98.7 ± 2.3 | 98.2 ± 3.5 | not to exhibit toxicity |  | 
CCCCCCC/C=C/C(=O)CCc1ccc(O)c(OC)c1 [[8]-shogaol] | 1.3 ± 0.1 | 1.5 ± 0.1 | 1.8 ± 0.1 | secreted insulin concentration-dependently | 94.0 ± 2.6 | 96.3 ± 1.9 | 92.4 ± 1.7 | not to exhibit toxicity |  | 
CCCCCCC[C@H](O)CC(=O)CCc1ccc(O)c(OC)c1 [[8]-gingerol] | 1.1 ± 0.0 | 1.5 ± 0.0 | 2.1 ± 0.0 | secreted insulin concentration-dependently |  |  |  |  |  | 
Cc1ccc(S(=O)(=O)NC(=O)NN2CC3CCCC3C2)cc1 (stereo not shown) [Glyclazide, gliclazide, reference compound] | 1.3 ± 0.0 | 1.9 ± 0.1 | 3.0 ± 0.1 |  | 99.7 ± 0.2 | 96.3 ± 0.9 | 91.1 ± 1.4 |  |  | 
